Test results published in ChEMBL document CHEMBL1144596, “Synthesis of O-prenylated and O-geranylated derivatives of 5-benzylidene2,4-thiazolidinediones and evaluation of their free radical scavenging activity as well as effect on some phase II antioxidant/detoxifying enzymes” (Bioorg Med Chem Lett, 2007).
Blank lines part the entries; values can stand above or below the molecule they belong to.

Legend:
[1] = Inhibition of DPPH radical scavenging activity; assay type: functional
[2] = species on record: Mus musculus; experiment: Effect on lipid-peroxidation level per protein in Swiss Albino mouse liver; assay type: functional, organism-based
[3] = species on record: Mus musculus; experiment: Stimulation of GST level in Swiss Albino mouse liver; assay type: functional
[4] = species on record: Mus musculus; experiment: Stimulation of GSH level per protein in Swiss Albino mouse liver; assay type: functional
[5] = species on record: Mus musculus; experiment: Stimulation of SOD level per protein in Swiss Albino mouse liver; assay type: functional
[6] = species on record: Mus musculus; experiment: Stimulation of CAT level per protein in Swiss Albino mouse liver; assay type: functional
[7] = tested on: Mus musculus; experiment: Hepatoprotecting activity in Swiss Albino mouse liver assessed as ALT level at 3 mg/kg, po for 20 days; assay type: functional
[8] = tested on: Mus musculus; experiment: Hepatoprotecting activity in Swiss Albino mouse liver assessed as […] level at 3 mg/kg, po for 20 days; assay type: functional
[9] = tested on: Mus musculus; experiment: Hepatoprotecting activity in Swiss Albino mouse liver assessed as urea level at 3 mg/kg, po for 20 days

IC50 [1]: 2.49 µM
SMILES: COc1cc(/C=C2/SC(=O)NC2=O)ccc1O
Activity [2]: 0.143 nmol/mg
Activity [3]: 220.8 nmol/mg/min
Activity [4]: 184.09 nmol/mg
Activity [5]: 65.45 U/mg
Activity [6]: 16.85 U/mg
Activity [7]: 4.8 IU/L
Activity [8]: 38.1 IU/L
Urea level [9]: 13.83 mg/dL

IC50 [1]: 12 µM
SMILES: CC(C)=CCC/C(C)=C/COc1ccccc1/C=C1/SC(=O)NC1=O

IC50 [1]: 4.08 µM
SMILES: COc1cc(/C=C2/SC(=O)NC2=O)cc(OC)c1OCC=C(C)C
Activity [2]: 0.158 nmol/mg
Activity [3]: 140.54 nmol/mg/min
Activity [4]: 238.22 nmol/mg
Activity [5]: 67.45 U/mg
Activity [6]: 23.97 U/mg
Activity [7]: 7.3 IU/L
Activity [8]: 37.99 IU/L
Urea level [9]: 16.53 mg/dL

IC50 [1]: 12 µM
SMILES: O=C1NC(=O)/C(=C\c2ccc(O)cc2)S1

IC50 [1]: > 50 µM
SMILES: CC(C)=CCOc1ccc(/C=C2/SC(=O)NC2=O)cc1

IC50 [1]: 2.3 µM
SMILES: Cc1c(C)c2c(c(C)c1O)CC[C@@](C)(CCC[C@H](C)CCC[C@H](C)CCCC(C)C)O2 [ALPHA-TOCOPHEROL]

IC50 [1]: 43.3 µM
SMILES: CC(C)=CCOc1ccccc1/C=C1/SC(=O)NC1=O

IC50 [1]: 17.9 µM
SMILES: COc1cc(/C=C2/SC(=O)NC2=O)ccc1OCC=C(C)C

IC50 [1]: 23.5 µM
SMILES: O=C1NC(=O)/C(=C\c2ccccc2O)S1

IC50 [1]: 32.1 µM
SMILES: COc1cc(/C=C2/SC(=O)NC2=O)cc(OC)c1OC/C=C(/C)CCC=C(C)C

IC50 [1]: 2.85 µM
SMILES: COc1cc(/C=C2/SC(=O)NC2=O)cc(OC)c1O

IC50 [1]: 17.6 µM
SMILES: COc1cc(/C=C2/SC(=O)NC2=O)ccc1OC/C=C(/C)CCC=C(C)C

IC50 [1]: 9.8 µM
SMILES: CC(C)=CCC/C(C)=C\COc1ccc(/C=C2/SC(=O)NC2=O)cc1
Activity [2]: 0.148 nmol/mg
Activity [3]: 160.33 nmol/mg/min
Activity [4]: 245.32 nmol/mg
Activity [5]: 70.15 U/mg
Activity [6]: 22.32 U/mg
Activity [7]: 6.32 IU/L
Activity [8]: 32.88 IU/L
Urea level [9]: 14.69 mg/dL
